# Laboratory results reported in paper PMC5218480 (PLoS ONE, 2017).
# Tested on: MV-4-11 cells
# Experiment: Gene expression microarray analysis (Affymetrix PrimeView) and GSEA
# Format: cell-based, human
# Design: RFU PODN (11730768_x_at) / Fold change /veh PODN (11730768_x_at) / RFU LINC00158 (11744669_a_at) / Fold change /veh LINC00158 (11744669_a_at) / RFU DUSP10 (11751237_a_at) / Fold change /veh DUSP10 (11751237_a_at) / RFU ID3 (11757404_x_at) / Fold change /veh ID3 (11757404_x_at) / RFU PLEKHG5 (11737974_s_at) / Fold change /veh PLEKHG5 (11737974_s_at) / RFU LRRC4B (11730491_at) / Fold change /veh LRRC4B (11730491_at) / RFU GIMAP4 (11747438_a_at) / Fold change /veh GIMAP4 (11747438_a_at) / RFU KRT8 (11758183_x_at) / Fold change /veh KRT8 (11758183_x_at) / RFU CNN1 (11734310_a_at) / Fold change /veh CNN1 (11734310_a_at) / RFU VPS37D (11726825_at) / Fold change /veh VPS37D (11726825_at) / RFU C10orf10 (11716522_x_at) / Fold change /veh C10orf10 (11716522_x_at) / RFU KIR2DL2 /// KIR2DL4 /// KIR2DL5A /// KIR2DL5B /// KIR2DS1 /// KIR2DS2 /// KIR2DS3 /// KIR2DS4 /// KIR3DL3 /// KIR3DL3 /// KIR3DS1 (11738374_at) / Fold change /veh KIR2DL2 /// KIR2DL4 /// KIR2DL5A /// KIR2DL5B /// KIR2DS1 /// KIR2DS2 /// KIR2DS3 /// KIR2DS4 /// KIR3DL3 /// KIR3DL3 /// KIR3DS1 (11738374_at) / RFU C1QL1 (11718748_at) / Fold change /veh C1QL1 (11718748_at) / RFU TMPRSS4 (11747572_a_at) / Fold change /veh TMPRSS4 (11747572_a_at) / RFU HAMP (11756126_x_at) / Fold change /veh HAMP (11756126_x_at) / RFU RNFT2 (11725882_a_at) / Fold change /veh RNFT2 (11725882_a_at) / RFU NR4A2 (11747474_a_at) / Fold change /veh NR4A2 (11747474_a_at) / RFU ABCC12 (11746883_a_at) / Fold change /veh ABCC12 (11746883_a_at) / RFU TMEM136 (11760407_x_at) / Fold change /veh TMEM136 (11760407_x_at) / RFU CLDN22 /// WWC2 (11732394_at) / Fold change /veh CLDN22 /// WWC2 (11732394_at) / RFU HLA-DPB1 (11760878_x_at) / Fold change /veh HLA-DPB1 (11760878_x_at) / RFU SPINT1 (11716480_a_at) / Fold change /veh SPINT1 (11716480_a_at) / RFU GAP43 (11754022_s_at) / Fold change /veh GAP43 (11754022_s_at) / RFU A4GNT (11735810_at) / Fold change /veh A4GNT (11735810_at) / RFU PRB3 (11715151_x_at) / Fold change /veh PRB3 (11715151_x_at) / RFU TUBB4B (11761932_at) / Fold change /veh TUBB4B (11761932_at) / RFU CAPN14 (11732068_a_at) / Fold change /veh CAPN14 (11732068_a_at) / RFU TMCC2 (11721928_a_at) / Fold change /veh TMCC2 (11721928_a_at) / RFU IRGQ (11745062_a_at) / Fold change /veh IRGQ (11745062_a_at) / RFU FAM174B (11720279_a_at) / Fold change /veh FAM174B (11720279_a_at) / RFU TMPRSS4 (11748680_a_at) / Fold change /veh TMPRSS4 (11748680_a_at) / RFU FAM212B (11763350_a_at) / Fold change /veh FAM212B (11763350_a_at) / RFU PLEKHG5 (11743358_a_at) / Fold change /veh PLEKHG5 (11743358_a_at) / RFU ZSCAN30 (11745921_a_at) / Fold change /veh ZSCAN30 (11745921_a_at) / RFU CMKLR1 (11741424_a_at) / Fold change /veh CMKLR1 (11741424_a_at) / RFU LOC101060620 /// MAPK8IP1 (11723275_at) / Fold change /veh LOC101060620 /// MAPK8IP1 (11723275_at) / RFU SPTSSB (11747773_x_at) / Fold change /veh SPTSSB (11747773_x_at) / RFU PRSS12 (11739890_at) / Fold change /veh PRSS12 (11739890_at) / RFU BIN1 (11741810_x_at) / Fold change /veh BIN1 (11741810_x_at) / RFU WNT11 (11732464_a_at) / Fold change /veh WNT11 (11732464_a_at) / RFU C10orf10 (11716521_a_at) / Fold change /veh C10orf10 (11716521_a_at) / RFU C5orf56 (11738089_at) / Fold change /veh C5orf56 (11738089_at) / RFU CYB561 (11721691_x_at) / Fold change /veh CYB561 (11721691_x_at) / RFU ANKRD19P (11752326_a_at) / Fold change /veh ANKRD19P (11752326_a_at) / RFU OR2T12 /// OR2T33 /// OR2T8 (11738714_s_at) / Fold change /veh OR2T12 /// OR2T33 /// OR2T8 (11738714_s_at) / RFU VCAN (11748164_a_at) / Fold change /veh VCAN (11748164_a_at) / RFU JSRP1 (11732532_at) / Fold change /veh JSRP1 (11732532_at) / RFU KRTAP10-11 (11738290_x_at) / Fold change /veh KRTAP10-11 (11738290_x_at) / RFU MYO3A (11730013_a_at) / Fold change /veh MYO3A (11730013_a_at) / RFU EBF3 (11725865_a_at) / Fold change /veh EBF3 (11725865_a_at) / RFU CAMK2N1 (11719241_x_at) / Fold change /veh CAMK2N1 (11719241_x_at) / RFU C5orf56 (11738088_a_at) / Fold change /veh C5orf56 (11738088_a_at) / RFU OLFML3 (11715873_a_at) / Fold change /veh OLFML3 (11715873_a_at) / RFU LOC100653217 /// NTM (11731650_a_at) / Fold change /veh LOC100653217 /// NTM (11731650_a_at) / RFU MAPK11 (11762145_a_at) / Fold change /veh MAPK11 (11762145_a_at) / RFU FIZ1 (11724087_x_at) / Fold change /veh FIZ1 (11724087_x_at) / RFU OASL (11726364_x_at) / Fold change /veh OASL (11726364_x_at) / RFU SOX15 (11748057_x_at) / Fold change /veh SOX15 (11748057_x_at) / RFU CD79A (11719716_a_at) / Fold change /veh CD79A (11719716_a_at) / RFU HIST1H1D (11736915_at) / Fold change /veh HIST1H1D (11736915_at) / RFU CASKIN2 (11723855_a_at) / Fold change /veh CASKIN2 (11723855_a_at) / RFU LOC730098 (11760151_x_at) / Fold change /veh LOC730098 (11760151_x_at) / RFU OR4N2 (11742367_at) / Fold change /veh OR4N2 (11742367_at) / RFU PRRT2 (11749266_a_at) / Fold change /veh PRRT2 (11749266_a_at) / RFU SNX32 (11753110_a_at) / Fold change /veh SNX32 (11753110_a_at) / RFU CDHR5 (11726645_a_at) / Fold change /veh CDHR5 (11726645_a_at) / RFU RCAN1 (11760418_a_at) / Fold change /veh RCAN1 (11760418_a_at) / RFU FAM167A (11723789_a_at) / Fold change /veh FAM167A (11723789_a_at) / RFU FAM26E (11764081_at) / Fold change /veh FAM26E (11764081_at) / RFU ISYNA1 (11749810_s_at) / Fold change /veh ISYNA1 (11749810_s_at) / RFU ACY1 (11761880_at) / Fold change /veh ACY1 (11761880_at) / RFU 11764098_at / Fold change /veh 11764098_at / RFU SAMD14 (11745864_x_at) / Fold change /veh SAMD14 (11745864_x_at) / RFU NPB (11741838_a_at) / Fold change /veh NPB (11741838_a_at) / RFU TMPRSS6 (11731388_a_at) / Fold change /veh TMPRSS6 (11731388_a_at) / RFU KRTAP10-2 (11738614_at) / Fold change /veh KRTAP10-2 (11738614_at) / RFU ARHGAP8 /// PRR5-ARHGAP8 (11727945_x_at) / Fold change /veh ARHGAP8 /// PRR5-ARHGAP8 (11727945_x_at) / RFU KRTAP5-7 /// NADSYN1 (11734609_at) / Fold change /veh KRTAP5-7 /// NADSYN1 (11734609_at) / RFU RASL12 (11751679_a_at) / Fold change /veh RASL12 (11751679_a_at) / RFU CDKN2B (11736163_a_at) / Fold change /veh CDKN2B (11736163_a_at) / RFU PRF1 (11729649_at) / Fold change /veh PRF1 (11729649_at) / RFU, ZNF638 /// ZNF638-IT1 / Fold change vs veh, ZNF638 /// ZNF638-IT1 / RFU, PANK3 / Fold change vs veh, PANK3 / RFU, SH3YL1 / Fold change vs veh, SH3YL1 / RFU, ZEB2 / Fold change vs veh, ZEB2 / RFU, NRIP1 / Fold change vs veh, NRIP1 / RFU, PTTG1IP / Fold change vs veh, PTTG1IP / RFU, CAPN2 / Fold change vs veh, CAPN2 / RFU, MED14 / Fold change vs veh, MED14 / RFU, SNORA58 / Fold change vs veh, SNORA58 / RFU, C1orf63 / Fold change vs veh, C1orf63 / RFU, LRRFIP1 / Fold change vs veh, LRRFIP1 / RFU, NDUFAF7 / Fold change vs veh, NDUFAF7 / RFU, SLC12A2 / Fold change vs veh, SLC12A2 / RFU, IBTK / Fold change vs veh, IBTK / RFU, ESF1 / Fold change vs veh, ESF1 / Fold change vs veh, TMEM50B / RFU, TAOK1 / Fold change vs veh, TAOK1 / RFU, ACBD3 / Fold change vs veh, ACBD3 / RFU, TMA16 / Fold change vs veh, TMA16 / RFU, RWDD3 / Fold change vs veh, RWDD3 / RFU, BCAT1 / Fold change vs veh, BCAT1 / RFU, EDEM3 / Fold change vs veh, EDEM3 / RFU, TMEM33 / Fold change vs veh, TMEM33 / RFU, WDR75 / Fold change vs veh, WDR75 / RFU, AHCTF1 / Fold change vs veh, AHCTF1 / RFU, TFRC / Fold change vs veh, TFRC / RFU, ZDHHC17 / Fold change vs veh, ZDHHC17 / RFU, NOM1 / Fold change vs veh, NOM1 / RFU, ARL8B / Fold change vs veh, ARL8B / RFU, ZBTB11 / Fold change vs veh, ZBTB11 / RFU, TAMM41 / Fold change vs veh, TAMM41 / RFU, KIAA1704 /// LOC100996395 / Fold change vs veh, KIAA1704 /// LOC100996395 / RFU, ING1 / Fold change vs veh, ING1 / RFU, TRMT61B / Fold change vs veh, TRMT61B / RFU, FUBP3 / Fold change vs veh, FUBP3 / RFU, TP53 / Fold change vs veh, TP53 / RFU, TNKS2 / Fold change vs veh, TNKS2 / RFU, ZFP14 / Fold change vs veh, ZFP14 / RFU, ACTR2 / Fold change vs veh, ACTR2 / RFU, PPP3R1 / Fold change vs veh, PPP3R1 / RFU, PIK3R1 / Fold change vs veh, PIK3R1 / RFU, HNRNPA1 / Fold change vs veh, HNRNPA1 / RFU, RNF170 / Fold change vs veh, RNF170 / RFU, ZNF28 / Fold change vs veh, ZNF28 / RFU, RNGTT / Fold change vs veh, RNGTT / RFU, OGT / Fold change vs veh, OGT / RFU, BRD1 / Fold change vs veh, BRD1 / RFU, MARS / Fold change vs veh, MARS / RFU, ZNF655 / Fold change vs veh, ZNF655 / RFU, FAHD1 / Fold change vs veh, FAHD1 / RFU, BDP1 / Fold change vs veh, BDP1 / RFU, LRRCC1 / Fold change vs veh, LRRCC1 / RFU, ARID1A / Fold change vs veh, ARID1A / RFU, ZNF146 / Fold change vs veh, ZNF146 / RFU, ZNF330 / Fold change vs veh, ZNF330 / RFU, GPN3 / Fold change vs veh, GPN3 / RFU, C9orf123 / Fold change vs veh, C9orf123 / RFU, N4BP2L2 / Fold change vs veh, N4BP2L2 / RFU, ARFIP1 / Fold change vs veh, ARFIP1 / RFU, FAM179B / Fold change vs veh, FAM179B / RFU, BCL10 / Fold change vs veh, BCL10 / RFU, UHRF1BP1L / Fold change vs veh, UHRF1BP1L / RFU, BET1 / Fold change vs veh, BET1 / RFU, CNOT2 / Fold change vs veh, CNOT2 / RFU, ZNF268 / Fold change vs veh, ZNF268 / Fold change vs veh, ZNF507 / RFU, DGCR2 / Fold change vs veh, DGCR2 / RFU, WDSUB1 / Fold change vs veh, WDSUB1 / Fold change vs veh, HSP90B1 /// MIR3652 / RFU, ADSS / Fold change vs veh, ADSS / RFU, GK / Fold change vs veh, GK / RFU, ZNF148 / Fold change vs veh, ZNF148 / RFU, TAF9 / Fold change vs veh, TAF9 / RFU, SLC1A5 / Fold change vs veh, SLC1A5 / RFU, SLMO2 / Fold change vs veh, SLMO2 / RFU, ABCC4 / Fold change vs veh, ABCC4 / RFU, LOC101060439 /// RAP1B / Fold change vs veh, LOC101060439 /// RAP1B / RFU, RFX7 / Fold change vs veh, RFX7 / RFU, GTPBP10 / Fold change vs veh, GTPBP10 / RFU, CNEP1R1 / Fold change vs veh, CNEP1R1 / RFU, BIVM-ERCC5 /// ERCC5 / Fold change vs veh, BIVM-ERCC5 /// ERCC5 / RFU, ILF3 / Fold change vs veh, ILF3 / RFU 11762660_at / Fold change /veh 11762660_at / RFU VCAN (11757783_s_at) / Fold change /veh VCAN (11757783_s_at) / RFU DDX43 (11728927_at) / Fold change /veh DDX43 (11728927_at) / RFU KRT8 (11758188_x_at) / Fold change /veh KRT8 (11758188_x_at) / RFU NKD1 (11759106_at) / Fold change /veh NKD1 (11759106_at) / RFU SRD5A1 (11742802_a_at) / Fold change /veh SRD5A1 (11742802_a_at) / RFU TPSAB1 /// TPSB2 (11721975_s_at) / Fold change /veh TPSAB1 /// TPSB2 (11721975_s_at) / RFU GSTM3 (11746129_a_at) / Fold change /veh GSTM3 (11746129_a_at) / RFU IL23R (11737362_x_at) / Fold change /veh IL23R (11737362_x_at) / RFU TMEM51 (11727254_a_at) / Fold change /veh TMEM51 (11727254_a_at) / RFU PIWIL2 (11732686_x_at) / Fold change /veh PIWIL2 (11732686_x_at) / RFU ORM1 (11744905_x_at) / Fold change /veh ORM1 (11744905_x_at) / RFU CCDC152 (11743942_at) / Fold change /veh CCDC152 (11743942_at) / RFU ECM1 (11717891_a_at) / Fold change /veh ECM1 (11717891_a_at) / RFU IL23R (11748794_a_at) / Fold change /veh IL23R (11748794_a_at) / RFU TNFAIP8L3 (11732012_x_at) / Fold change /veh TNFAIP8L3 (11732012_x_at) / RFU MBOAT4 (11741988_at) / Fold change /veh MBOAT4 (11741988_at) / RFU 11764193_at / Fold change /veh 11764193_at / RFU TMEM53 (11763286_at) / Fold change /veh TMEM53 (11763286_at) / RFU MAGEB2 (11727129_at) / Fold change /veh MAGEB2 (11727129_at) / RFU TMEM200A (11744735_a_at) / Fold change /veh TMEM200A (11744735_a_at) / RFU CCDC152 (11751479_a_at) / Fold change /veh CCDC152 (11751479_a_at) / RFU FAM211A (11726209_a_at) / Fold change /veh FAM211A (11726209_a_at) / RFU RGS16 (11746705_a_at) / Fold change /veh RGS16 (11746705_a_at) / RFU VCAN (11755009_s_at) / Fold change /veh VCAN (11755009_s_at) / RFU RHOB (11743442_s_at) / Fold change /veh RHOB (11743442_s_at) / RFU RGS16 (11720943_a_at) / Fold change /veh RGS16 (11720943_a_at) / RFU RGS16 (11720944_at) / Fold change /veh RGS16 (11720944_at) / RFU, VPS4B / Fold change vs veh, VPS4B / RFU, CREB1 / Fold change vs veh, CREB1 / RFU, DNAJC13 / Fold change vs veh, DNAJC13 / RFU, GNAQ / Fold change vs veh, GNAQ / RFU, CDK5R1 / Fold change vs veh, CDK5R1 / RFU, ZRANB3 / Fold change vs veh, ZRANB3 / RFU, CUL4A / Fold change vs veh, CUL4A / RFU, CCNY / Fold change vs veh, CCNY / RFU, UFL1 / Fold change vs veh, UFL1 / RFU, COG3 / Fold change vs veh, COG3 / RFU, DIAPH2 / Fold change vs veh, DIAPH2 / RFU, SKA2 / Fold change vs veh, SKA2 / RFU, AFF3 / Fold change vs veh, AFF3 / RFU, LMF1 / Fold change vs veh, LMF1 / RFU, IPO11 / Fold change vs veh, IPO11 / RFU, DFFB / Fold change vs veh, DFFB / RFU, FOXP1 / Fold change vs veh, FOXP1 / RFU, CARD8 / Fold change vs veh, CARD8 / RFU, STRN3 / Fold change vs veh, STRN3 / RFU, ADK / Fold change vs veh, ADK / RFU, RASSF2 / Fold change vs veh, RASSF2 / RFU, WIPF1 / Fold change vs veh, WIPF1 / RFU, LARP1B / Fold change vs veh, LARP1B / RFU, RASA1 / Fold change vs veh, RASA1 / RFU, RB1 / Fold change vs veh, RB1 / RFU, PPFIA1 / Fold change vs veh, PPFIA1 / RFU, MAT2A / Fold change vs veh, MAT2A / RFU, CCT5 / Fold change vs veh, CCT5 / RFU, WDR92 / Fold change vs veh, WDR92 / RFU, CUX1 / Fold change vs veh, CUX1 / RFU, TTC7A / Fold change vs veh, TTC7A / RFU, TMEM135 / Fold change vs veh, TMEM135 / RFU, DEPTOR / Fold change vs veh, DEPTOR / RFU, CPM / Fold change vs veh, CPM / RFU, DNAJB6 / Fold change vs veh, DNAJB6 / RFU, CACNA2D3 / Fold change vs veh, CACNA2D3 / RFU, DTX4 / Fold change vs veh, DTX4 / RFU, TFCP2 / Fold change vs veh, TFCP2 / RFU, GMCL1 /// GMCL1P1 / Fold change vs veh, GMCL1 /// GMCL1P1 / RFU, AEBP2 / Fold change vs veh, AEBP2 / RFU, SNHG1 /// SNORD22 /// SNORD25 /// SNORD26 /// SNORD27 /// SNORD28 /// SNORD29 /// SNORD31 / Fold change vs veh, SNHG1 /// SNORD22 /// SNORD25 /// SNORD26 /// SNORD27 /// SNORD28 /// SNORD29 /// SNORD31 / Fold change (Aza/veh), C12orf56 (ProbeSet 11735607_a_at) / Fold change (ACY-1035/veh), C12orf56 (ProbeSet 11735607_a_at) / Fold change (Aza/veh), FGFR1OP (ProbeSet 11751329_s_at) / Fold change (ACY-1035/veh), FGFR1OP (ProbeSet 11751329_s_at) / Fold change (Aza/veh), VPS36 (ProbeSet 11739960_a_at) / Fold change (ACY-1035/veh), VPS36 (ProbeSet 11739960_a_at) / RFU SYPL1 (11715823_x_at) / Fold change /veh SYPL1 (11715823_x_at) / RFU IGFBP7 (11715501_s_at) / Fold change /veh IGFBP7 (11715501_s_at) / RFU REEP3 (11722064_at) / Fold change /veh REEP3 (11722064_at) / RFU IGLL1 (11728026_x_at) / Fold change /veh IGLL1 (11728026_x_at): dose or concentration left out as unconfirmed
# Settings: ProbeSet 11741070_a_at; LIST B
structure (smiles),measurement,value
Nc1ccc(-c2cccs2)cc1NC(=O)c1ccc2c(c1)cc(C1CC1)n2CCN1CCOCC1 [ACY-1035],"Fold change vs veh, ZNF146",0.99
